Consider 7 compounds from patent US12630632B2, “Bispecific HER2 and CD3 binding molecules” (Memorial Sloan Kettering Cancer Center, priority 2017, dated 2026).

The subject of one data set is SCCHN cell line PCI-30. Put plainly: Cell proliferation assay (WST-8). The data set is classed as cell-based, human. The following applies: 10 nM kinase inhibitors, 10 μg/mL antibodies. As for the experimental part:
(§1) Cell proliferation was determined using an ELISA plate reader and the WST-8 kit (Dojindo technologies) following the manufacturer's instructions and using the formula: % survival rate=(Sample-Background)/(Negative control-Background). Lapatinib (MSKCC pharmacy) was ground using a mortar and pestle and suspended in DMSO as previously described. To determine statistical significance, the results were analyzed using one-way ANOVA using Prism 6.0.
(§2) For cell proliferation assays, 5,000 tumor cells were plated using RPMI-1640 supplemented with 10% FBS in a 96 well plate for 36 hours before being treated with lapatinib or the antibodies at the specified concentrations. Cell proliferation was determined using an ELISA plate reader and the WST-8 kit (Dojindo technologies) following the manufacturer's instructions and using the formula: % survival rate=(Sample-Background)/(Negative control-Background). Lapatinib (Memorial Sloan Kettering Cancer Center pharmacy) was ground using a mortar and pestle and suspended in DMSO as previously described (Chen et al., 2012, Molecular cancer therapeutics 11:660-669). To determine statistical significance, the results were analyzed using one-way ANOVA using Prism 6.0.
(§3) For tumor cell proliferation, 5,000 tumor cells were plated using RPMI-1640 supplemented with 10%, fetal bovine serum (“FBS”) in a 96 well plate for 36 hours before being treated with—kinase inhibitors or the antibodies at the specified concentration. Cell proliferation was determined using the cell counting WST-8 kit (Dojindo technologies) following the manufacturer's instructions and using the formula: % survival rate=(Sample-Background)(Negative control-Background). Lapatinib was ground using a mortar and pestle and suspended in DMSO as previously described (Chen et al., Molecular cancer therapeutics 2012; 11:660-9). To determine statistical significance, the results were analyzed using one-way ANOVA using Prism 6.0.

The test system of data set [1] is osteosarcoma cell line U2OS. The data set can be described thus: Cell proliferation assay (WST-8). The following applies: 10 nM kinase inhibitors, 10 μg/mL antibodies. The format is cell-based, human. The method, then: as §1, §2, §3
The test system of data set [2] is cervical carcinoma HeLa cells. Put plainly: Cell proliferation assay (WST-8). The data set is classed as cell-based, human. As to conditions: 10 nM kinase inhibitors, 10 μg/mL antibodies. The method, then:
as §1, §2, §3

A further data set deals with HeLa. Put plainly: T-cell cytotoxicity, 51Cr release assay. The data set is classed as cell-based, human. The following applies: HeLa pre-treated with lapatinib. As for the experimental part:
(§4) The ^51Cr release assay was performed with effector T cells cultured in vitro in the presence of anti-CD3 and anti-CD28 for about 14 days. All target tumor cells were harvested with 2 mM EDTA in PBS, labeled with ^51Cr (Amersham, Arlington Height, IL) at 100 μCi/106 cells at 37° C. for 1 h. 5000 target cells/well were mixed with 50,000 effector cells (E:T=10:1) and BsAb antibodies in 96-well polystyrene round-bottom plates (BD Biosciences) to a final volume of 250 μl/well. The plates were incubated at 37° C. for 4 h. The released ^51Cr in supernatant was counted in a γ-counter (Packed Instrument, Downers Grove, IL). Percentage of specific release was calculated using the formula: (experimental cpm−background cpm)/(total cpm−background cpm)×100%, where cpm represented counts per minute of ^51Cr released. Total release was assessed by lysis with 10% SDS (Sigma, St Louis, Mo), and background release was measured in the absence of effector cells. EC50 was calculated using SigmaPlot software.
Cell cytotoxicity was assayed by ^51Cr release as previously described (Xu et al., Cancer immunology research 2015; 3:266-77), and EC50 was calculated using SigmaPlot software. Effector PBMC cells were purified from buffy coats purchased from the New York Blood Center. […]

The subject of data set [3] is HCC1954 breast cancer xenograft. Put plainly: s.c. tumor plus i.v. effector cells xenograft model. The data set is classed as in vivo, DKO mice. As to conditions: i.v. PBMC 7.5×10^6 once per week for 2 weeks, 100 μg i.v. twice per week for 4 weeks (Example 4).
Text: Three humanized mouse xenograft models were used: (1) intravenous tumor plus intravenous effector cells; (2) subcutaneous tumor plus subcutaneous effector cells; and (3) subcutaneous tumor plus intravenous effector cells. Subcutaneous xenografts were created with 5×10^6 cells suspended in Matrigel (Corning Corp, Tewksbury MA) and implanted in the flank of DKO mice. Effector peripheral blood mononuclear cell (PBMC) cells were purified from buffy coats purchased from the New York Blood Center. Prior to every experimental procedure, PBMCs were analyzed for their percentage of CD3, CD4, CD8 and CD56 cells to ensure consistency. […] Tumor size was measured using (1) hand-held TM900 scanner (Pieira, Brussels, BE); (2) Calipers; or (3) bioluminescence. Bioluminescence imaging was conducted using the Xenogen In Vivo Imaging System (IVIS) 200 (Caliper LifeSciences). Briefly, mice were injected intravenously with 0.1 mL solution of D-luciferin (Gold Biotechnology; 30 mg/mL stock in PBS). […]
Effector PBMC cells and ATCs were prepared as described above. Prior to every experimental procedure, PBMCs and ATCs were analyzed by FACS for their percentage of CD3, CD4, CD8 and CD56 cells to ensure consistency. […] Tumor size was measured using 1) hand-held TM900 scanner (Pieira, Brussels, BE), 2) Calipers, or 3) Bioluminescence. […]
The test system of data set [4] is HER2(+) SCCHN PCI-13 cells. Put plainly: Blocking of HER2-BsAb T-cell cytotoxicity by trastuzumab or anti-CD3. The following applies: for effect of blocking antibody on HER2-BsAb induced T cell cytotoxicity: HER2-positive cells pre-incubated with blocking antibody (Examples 1, 2). The data set is classed as cell-based, human. As for the experimental part:
as §4

The next data set has as its system naïve T cells. Put plainly: T cell proliferation (WST-8). The data set is classed as cell-based, human. The following applies: 67 nM antibody, 6 days. As for the experimental part:
For T cell proliferation, naïve T cells were purified from human PBMC using Pan T cell isolation kit (Miltenyi Biotec). 2×10^5 purified T cells were mixed with different antibodies in 96-well cell culture plate to a final volume of 250 μl/well. T cells were cultured and maintained in RPMI-1640 supplemented with 10% FBS in 37° C. for 6 days. T cell proliferation was quantitated using the WST-8 kit as described above.

“Also recorded” adds a separate entry of the source.

Regarding `C#Cc1cccc(Nc2ncnc3cc(OCCOC)c(OCCOC)cc23)c1` [erlotinib], the “sensitivity in proliferation assay” value in the data set with SCCHN cell line PCI-30 is on record as “resistant”; in data set [1], “minimal sensitivity; also recorded: resistant”; in data set [2], “resistant”; in data set [2] (listed as Erlotinib), “pan-resistant”.
With `CS(=O)(=O)CCNCc1ccc(-c2ccc3ncnc(Nc4ccc(OCc5cccc(F)c5)c(Cl)c4)c3c2)o1` [lapatinib], the “sensitivity in proliferation assay” value in the data set with SCCHN cell line PCI-30 was “resistant”; in data set [1], “resistant”; in data set [1] (listed as Lapatinib), “minimal sensitivity”; in data set [2] it was “no effect on cell proliferation; also recorded: resistant”; in data set [2] (listed as Lapatinib), “pan-resistant”. In addition, the “effect of pretreatment on sensitivity to HER2-BsAb mediated cytotoxicity” value with HeLa is “enhances”.
For the compound `CCOc1cc2ncc(C#N)c(Nc3ccc(OCc4ccccn4)c(Cl)c3)c2cc1NC(=O)/C=C/CN(C)C` [neratinib], the “sensitivity in proliferation assay” value in the data set on SCCHN cell line PCI-30 is given as “resistant”; in data set [1] it was “minimal sensitivity; also recorded: resistant”; in data set [2], “resistant”; in data set [2] (listed as Neratinib), “pan-resistant”.
Turning to Atezolizumab, the tumor volume entry in data set [3] is “no effect”.
Consider OKT3: CD3 specific blocking mAb, for which, in data set [4], the “effect of blocking antibody on HER2-BsAb induced T cell cytotoxicity” value is recorded as “prevented”.
Pembrolizumab: in data set [3], the tumor volume result was “no effect”.
In the case of “huOKT3: humanized anti-CD3 OKT3 IgG1, bivalent”, in the data set on naïve T cells, the “T cell proliferation in the absence of tumor targets” value was “robust T cell proliferation”. Moreover, the “effect of blocking antibody on HER2-BsAb induced T cell cytotoxicity” value in data set [4] is on record as “block”. Moreover, the “effect of blocking antibody on HER2-BsAb T-cell cytotoxicity” value in data set [4] (PCI-13, 0.1 μg/mL HER2-BsAb, 10 μg/mL blocking antibodies) is “prevented; also recorded: abrogates”.
